Measurements as given in ChEMBL document CHEMBL5518186, “Discovery of the cereblon-recruiting tubulin PROTACs effective in overcoming Taxol resistance in vitro and in vivo” (Eur J Med Chem, 2024).

How the values were obtained:
A549 [1] = experiment: Induction of apoptosis in human A549 cells assessed as increase in apoptotic rate at 0.002 uM incubated for 48 hrs by Annexin V-FITC/PI staining based flow cytometry analysis (reference value: 1.3%); format: functional
U-937 = experiment: Antiproliferative activity against human U-937 cells incubated for 72 hrs; format: functional, cell-based; conditions: U-937, 72 h
A549/TR = experiment: Induction of cell cycle arrest in human A549/Taxol cells assessed as accumulation of cells at G0/G1 phase at 0.002 uM incubated for 24 hrs by PI staining based flow cytometry analysis (reference value: 77.86%); format: functional
A549 [2] = experiment: Induction of cell cycle arrest in human A549 cells assessed as accumulation of cells at G0/G1 phase at 0.002 uM incubated for 24 hrs by PI staining based flow cytometry analysis (reference value: 66.75%); format: functional
HepG2 = experiment: Antiproliferative activity against human HepG2 cells incubated for 72 hrs; format: functional, cell-based; conditions: HepG2, 72 h

IC50 (U-937): 0.018 µM | IC50 (HepG2): 0.004 µM
SMILES: COc1ccc(/C=C\c2cc(OC)c(OC)c(OC)c2)cc1OC(=O)CCCNc1cccc2c1C(=O)N(C1CCC(=O)NC1=O)C2=O (stereo not given)
Activity (A549 [1]): 7.23% | Activity (A549/TR): 67.61% | Activity (A549 [2]): 57.32%
